Experimental data reported in patent US9567371B2, “Short beta-defensin-derived peptides” (Yeda Research and Development Co. Ltd., priority 2009, dated 2017).
Peptide text beside a SMILES is read from it.

Tests used:
CXCR4 = target: T1, CXCR4 (Homo sapiens, UniProt P61073); experiment: CXCR4 membrane expression (flow cytometry); type: cell-based; details: human cord blood CD34+ cells, 1 or 10 μM, 3 hrs
T1 construct: endogenous in cells; host or cells: human cord blood CD34+ cells, human pre-B-ALL G2 cells, U937 and HL-60 cells
Protocol: FIGS. 10A-10C. TL-1 and cTL1 down-regulate CXCR4 expression on human cord blood CD34^+ and G2 cells. Human cord blood CD34^+ and G2 cells were incubated with 1 or 10 μM TL-1 or cyclic TL-1 for 3 hrs or left untreated (UT), washed, stained with CXCR4 and CCR5 Ab and analyzed by flow cytometry. Representative histograms from 3 separate experiments are shown. FIG. 10A—effect of TL-1 on CXCR4 expression. FIG. 10B—effect of cTL-1 on CXCR4 expression. FIG. 10C—effects of TL-1 and cTL-1 on CCR5 expression.
(§1) Various cell types (1×10^6/mL) were pretreated with the peptides for 3 hrs as described above, washed and then stained in staining buffer (PBS supplemented with 0.5% FCS and 0.01% sodium azide) with mouse anti-human CXCR4-PE, CCR5-FITC (R&D Systems, Minneapolis, Minn.) or CD45-FITC (ImmunoQuality Products, Groningen, The Netherlands) mAbs for 30 min at 4° C. and analyzed by flow cytometry as described (Kalinkovich, A., et al., 2006). Appropriate IgG were used as the isotype controls.
(§2) Recently, it has been shown that HBD3 could induce internalization of CXCR4 but not of CCR5 in the CEM T cells expressing both CXCR4 and CCR5 (Feng, Z. et al., 2006) implying CXCR4 specificity in HBD3 action.

MBA-15 cells = experiment: SDF-1, bFGF and HGF secretion by stromal cells (ELISA of supernatants); type: cell-based, mouse; details: 10 μM
Protocol: (§3) FIGS. 7A-7F. Effect of TL-1, AK-1 and cyclic TL-1 on SDF-1, bFGF and HGF secretion by different stromal cell lines. MS-5, MBA-15 and MG-63 cells were co-cultured with 10 μM TL-1, AK-1 or cyclic TL-1 in the serum free medium for 6 hrs, or without added peptide (UT). Levels of SDF-1 (A-C), bFGF (D) and HGF (E, F) were detected in the collected supernatants by ELISA. Data shown are the mean±SD of 2 separate experiments. *P<0.05 compared to control.
(§4) SDF-1 levels in tested samples were determined by ELISA as described (Kalinkovich, A., et al., 2006) where the K15C monoclonal antibodies (mAb, INRA, Paris, France) recognizing the first three amino acids of SDF-1 were utilized as a capture Ab (10 μg/mL) in order to measure levels of intact, non-cleaved SDF-1. Levels of basic FGF (bFGF) and HGF in tested samples were determined by using corresponding capture mAbs and polyclonal biotynilated Abs (R&D Systems) as recommended by the manufacturer. In order to examine SDF-1, bFGF and HGF levels in cell supernatants, MS-5, MBA-15 and MG-63 cells were seeded in 24-well Costar wells and cultivated in RPMI 1640 or αMEM Eagle medium, respectively, with 10% FCS. When the cells reached confluence, the medium was changed to serum free medium and cells were cultivated for additional 6 hrs in the presence of various concentrations of the peptides. Medium samples were collected and centrifuged 10 min at 6000×g at 4° C. to remove cell debris. Supernatants were collected and kept at −70° C. until tested.
(§5) Because BM stromal cells, such as endosteal bone lining osteoblasts and endothelial cells are the main source of human and murine SDF-1, the capability of the peptides to affect SDF-1 secretion by mouse stromal MS-5 and MBA-15 cells, and human osteoblast MG-63 cells was examined.
(§6) In order to examine the capability of the peptides to induce secretion of other proteins, the levels of Hepatocyte growth factor (HGF) and Basic fibroblast growth factor (bFGF) were detected in the same supernatants.

MS-5 cells = experiment: as above; type: cell-based, mouse; details: 10 μM, compared with untreated cells
Protocol: as §3, §4, §5, §6

CD45 = CD45 membrane expression (flow cytometry); type: cell-based, human; details: tested cells, 3 hrs preincubation
Protocol: as §1, §2

[1] = system: G2 cells and mouse BM MNC; experiment: Chemotaxis assay (untreated cells migrate towards peptide in bottom chamber); type: cell-based; details: 1 and 10 μM peptide in bottom chamber, 4 hrs
Protocol: FIGS. 9A-9B. AK-1 increases SDF-1-induced migration and chemotaxis of G2 and mouse bone marrow mononuclear cells (BM MNC). (A) G2 cells and mouse BM MNC were preincubated with 1 and 10 μM AK-1 for 3 hrs in serum free medium, washed and allowed to migrate towards SDF-1. Migrated cells were collected and calculated by flow cytometry. Percentage of migrated cells is presented as compared to untreated control taken as 100%. (B) Untreated G2 cells and mouse BM MNC were put to the upper chambers of the transwell plates and allowed to migrate towards 1 and 10 μM AK-1 present the bottom chambers of the transwell plates for 4 hrs. Percentage of migrated cells is presented as compared to untreated (UT) control taken as 100%. Data shown are the mean±SD of 2 separate experiments. *P<0.05 compared to control.
Various cells (1×10^6/mL), untreated or pretreated with peptides for 3 hrs at 96-well flat bottom plates at 37° C. were washed, 2×10^5 cells/100 μL were added to the upper chambers of Costar 24-well transwell plates with 5 μm pore filters (Corning Inc., Corning, N.Y.) and allowed to migrate for 2-4 hrs at 37° C. (95% humidity, 5% CO2) spontaneously or towards 50 ng/mL SDF-1 (rhSDF-1, Peprotech, Rocky Hill, N.J.) in medium supplemented with 10% FCS. […] Migrated cells were collected from the lower chambers and counted using a flow cytometer. […]

T1 sequence (P61073 whole entry): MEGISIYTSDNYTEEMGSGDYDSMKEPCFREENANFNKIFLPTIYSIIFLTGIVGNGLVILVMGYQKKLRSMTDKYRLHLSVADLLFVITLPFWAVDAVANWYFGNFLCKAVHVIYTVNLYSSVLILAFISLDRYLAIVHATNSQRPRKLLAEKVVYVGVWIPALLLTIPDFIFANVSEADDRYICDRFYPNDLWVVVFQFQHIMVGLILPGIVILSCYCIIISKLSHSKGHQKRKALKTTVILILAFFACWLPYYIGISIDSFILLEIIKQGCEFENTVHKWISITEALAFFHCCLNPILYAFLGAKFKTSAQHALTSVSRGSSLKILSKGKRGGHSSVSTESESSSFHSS

## N=C(N)NCCC[C@@H]1NC(=O)CNC(=O)[C@H](CCCNC(=N)N)NC(=O)[C@H](CCCCN)NC(=O)[C@H](CCCCN)NC(=O)[C@H](CCCNC(=N)N)NC(=O)[C@H](CCCNC(=N)N)NC(=O)[C@H](CS)NC(=O)[C@H](CS)NC(=O)[C@H](CCCCN)NC1=O [cyclic TL-1, 1,10-cyclo[RGRKCCRRKK]] (cyclo(CCRRKKRGRK))
CXCR4
  CXCR4 expression: decreased CXCR4 expression
MBA-15 cells
  HGF secretion into supernatants: induced elevation
MBA-15 cells; compared with untreated cells
  levels of SDF-1 in supernatants: increased the levels of SDF-1 secretion by MS-5 and MBA-15 cells but much less as compared with TL-1 and AK-1
MS-5 cells
  levels of SDF-1 in supernatants: increased the levels of SDF-1 secretion by MS-5 and MBA-15 cells but much less as compared with TL-1 and AK-1
CD45
  membrane expression of CD45: either unaffected or slightly increased
[1]
  chemotaxis of untreated cells towards the peptide: ineffective
